Like-named read-outs stand apart in the source and are kept apart here.
Assays:
Assay type in all cases: biochemical
bovine eNOS = biological target: T1, bovine eNOS (Bos taurus, UniProt P29473); experiment: NOS enzyme inhibitory assay (hemoglobin capture), eNOS; conditions: for IC50: bovine eNOS, 10 μM L-arginine, * = no inhibition observed up to the concentration listed
T1 construct: made in house; host or cells: E. coli (plasmid Bov-eNOSpCW)
Procedure: (§1) All of the NOS isoforms used were recombinant enzymes overexpressed in E. coli from different sources. Nitric oxide formation from NOS was monitored by the hemoglobin capture assay as described in the literature.
Expression of bovine eNOS: An overnight culture of Bov-eNOSpCW was used to inoculate 0.5 liter (in a 2.8-liter Fernbach flask) of modified TB (20 g of yeast extract, 10 g of bacto-tryptone, 2.65 g of KH2PO4, 4.33 g of Na2HPO4 and 4 ml of glycerol per liter) containing ampicillin ([…]) and chloramphenicol ([…]). The cultures were grown to an OD600 of z0.8 at 22° C. (200 rpm) and induced with 0.5 mM IPTG. One hour before IPTG induction, d-aminolevulinic acid (0.5 mM final) was added and, at the time of IPTG induction, riboflavin ([…]) and ATP (1 mM final) were also added. After induction, the flasks were kept in the dark at 22° C. (200 rpm). The cells were harvested 48 h after induction, and the cell pellet was frozen at −80° C. until purification was carried out.
Purification of bovine eNOS. The purification was typically carried out with eNOS from 2 liters of E. coli culture. The eNOS protein was purified using a modification of the published protocol for nNOS (14). The cells were resuspended in buffer C [50 mM Tris-Cl, pH 7.8, 1 mM EDTA, 1 mM DTT, 10% glycerol (v/v), 150 mM NaCl, 0.1 mM phenylmethylsulfonyl fluoride, […]], lysed by pulsed sonication and then centrifuged to sediment the cell debris. The supernatant was applied to a 2′,5′-ADP Sepharose 4B column equilibrated in buffer D [50 mM Tris-Cl, pH 7.8, 0.1 mM EDTA, 0.1 mM dithiothreitol, 150 mM NaCl, 10% glycerol (v/v)]. The column was washed with 20 column volumes of buffer B and again with 20 column volumes of buffer B containing 600 mM NaCl. Finally, protein was eluted with buffer B containing 600 mM NaCl and 5 mM 2′-AMP. The fractions were screened for absorption in the Soret region (A400) and hemoprotein-containing fractions were pooled and concentrated (Centriprep 50, Amicon). Repeated dilution/concentration [50 mM Tris-Cl, pH 7.8, 0.1 mM EDTA, 0.1 mM dithiothreitol, 10% glycerol (vol/vol)] was used to reach a final concentration of 150 mM NaCl and commensurately reduce the 2′-AMP content. […] The purified eNOS is stored in the presence of 1 mM L-arginine.
eNOS washing: eNOS contains a significant amount of L-arginine, which will interfere with the enzyme assay. The L-arginine can be removed by several dilution and concentration steps using an Amico concentrator. The dilution buffer is 10 ml Tris-HCl 50 mM containing 0.1 mM EDTA, 400 mM NaCl, 10% glycerol and 1 mM beta-mercaptoethanol. The above dilution and concentration operation was repeated three times to give purified eNOS.
(§2) Nitric oxide formation from NOS was monitored by the hemoglobin capture assay as described previously. (Hevel, J. M.; Marletta, M. A. Nitric Oxide Synthase Assays. Methods Enzymol. 1994, […], 250-258).
(§3) The selectivity of an inhibitor is defined as the ratio of the respective Ki values.

rat nNOS = biological target: T2, rat nNOS (Rattus norvegicus, UniProt P29476); experiment: NOS enzyme inhibitory assay (hemoglobin capture), nNOS; conditions: for IC50: rat nNOS, 10 μM L-arginine
T2 construct: made in house; host or cells: E. coli (plasmid pCWnNOS)
Procedure: as §1
After approximately 48 h of post-induction incubation in the dark at 25° C. the cells were pelleted at 5300×g, transferred to 50 mL conical tubes, and stored at −80° C.
nNOS purification: Cell pellets from 2.0 L of culture were resuspended in sonication Buffer A (50 mM Tris Base Buffer, pH 8.0, 10% glycerol), 2 mg/ml lysozyme. 0.5 mM L-arginine. 1 mM EDTA, 0.1 mM PMSF, 1 µg/ml antipain, and 1 μM each of leupeptin, […], and […]) and lysed by sonication. Centrifugation for 1 h at 100000×g yielded supernatant which contained nNOS active enzyme. The supernatant was brought to 2 mM CaCl2 and the protein was loaded onto a 15 ml calmodulin-Sepharose column equilibrated with Buffer A containing 2 mM CaCl2. The column was washed with 100 ml Buffer B (50 mM Hepes, 5 mM DTT, and […]) containing 2 mM CaCl2, 0.5 mM L-arginine, and 10 μM BH4, and eluted with 30 ml Buffer B supplemented with 0.3 M NaCl, 5 mM EGTA, 0.5 mM L-arginine, and 10 μM BH4. The protein was then loaded onto a 5 ml 2′,5′-ADP-Sepharose column equilibrated with Buffer B supplemented with 0.3 M NaCl, 0.5 mM L-arginine, and 10 μM BH4. The column was washed with 25 ml Buffer B containing 0.5 mM L-arginine and 10 μM BH4, and then 25 ml of Buffer B only supplemented with 10 μM BH4 (without L-arginine). Neuronal NOS was eluted with 20 ml Buffer B supplemented with 10 mM 2′(3′)-AMP, 10 μM BH4 and 0.3 M NaCl. The 20 ml eluent was then concentrated to 5 ml by ultrafiltration. The above concentration operation was repeated twice more with 10 ml Buffer B supplemented with 10 µM BH4 to give the purified neuronal NOS.
Nitric oxide formation from NOS was monitored by the hemoglobin capture assay as described previously.
as §3

murine iNOS = biological target: T3, murine iNOS (Mus musculus, UniProt P29477); experiment: NOS enzyme inhibitory assay (hemoglobin capture), iNOS; conditions: for IC50: murine iNOS, 10 μM L-arginine
T3 construct: made in house; host or cells: E. coli (plasmid pCWiNOS)
Excerpt: as §1
Enzyme inhibitory assay. All of the NOS isoforms used are recombinant enzymes overexpressed in E. coli from different sources.
iNOS expression: An overnight culture of pCWiNOS was used to inoculate (1:100) larger cultures of Terrific Broth media (12 g/L tryptone, 24 g/L yeast extract, 4 mL/L glycerol, 17 mM KH2PO4, and 72 mM K2HPO4) containing 50 μg/mL ampicillin and 34 μg/mL chloramphenicol at 37° C. At an OD600 of ˜0.5, the culture was cooled to 25° C. and induced by the addition of 1 mM IPTG (final concentration). After approximately 24 h of growth at 25° C., the cells were pelleted at 5300×g, transferred to 50 mL conical tubes, and stored at −80° C.
iNOS purification: Cell pellets from 1.0 L of culture were resuspended in sonication buffer (50 mM Hepes, pH 7.4, 10% glycerol, 10 μg/mL benzamidine, 5 μg/mL leupeptin, 0.2 mM of PMSF, and 1 μg/mL each of pepstatin, chymostatin, and antipain) and lysed by sonication. Centrifugation for 20 min at 13000×g yielded supernatant which contained iNOS active enzyme. iNOS supernatant was loaded onto 1 g of a 2′,5′-ADP-Sepharose 4B resin column. The column was then washed with 20 ml iNOS purification buffer (10 mM K2HPO4, 10% glycerol, 0.5 mM L-arginine, pH 7.4) and 10 μM BH4. Inducible NOS was eluted with 30 ml iNOS purification buffer supplemented with 10 mM 2′(3′)-AMP, 10 μM BH4, and 0.3 M NaCl. The eluent was concentrated to 5 ml by ultrafiltration. The above concentration operation was repeated three times more with 10 ml Hepes buffer supplemented with 10 μM BH4, to give purified inducible NOS.
as §2, §3

[1] = Table 1a, apparent Ki calculated from IC50, Km 1.7 μM, read-out: calc. Ki eNOS
[2] = Table 1a, apparent Ki calculated from IC50, Km […], read-out: calc. Ki nNOS
[3] = Table 1a, apparent Ki calculated from IC50, Km […], read-out: calc. Ki iNOS
[4] = Table 1b, ratio of Ki values eNOS/nNOS
[5] = Table 1b, ratio of Ki values iNOS/nNOS

Row | SMILES | Ki (bovine eNOS; [1]) [µM] | IC50 (bovine eNOS; Table 1a) [µM] | Selectivity n/e (rat nNOS; Table 1a, Ki(eNOS)/Ki(nNOS)) | Selectivity n/i (rat nNOS; Table 1a, Ki(iNOS)/Ki(nNOS)) | Ki (rat nNOS; [2]) [µM] | IC50 (rat nNOS; Table 1a) [µM] | Ki (murine iNOS; [3]) [µM] | IC50 (murine iNOS; Table 1a) [µM] | Ki (bovine eNOS; Table 1b, read-out: Ki eNOS) [µM] | Selectivity n/e (rat nNOS; [4]) | Selectivity n/i (rat nNOS; [5]) | Ki (rat nNOS; Table 1b, read-out: Ki nNOS) [µM] | Ki (murine iNOS; Table 1b, read-out: Ki iNOS) [µM]
1 | Cc1cc(N)nc(C[C@H]2CNC[C@@H]2NCCN)c1.Cl.Cl.Cl.Cl (racemic) [Compound P-47] | 263 | 1810 | 430.7 | 52.5 | 0.61 | 5.34 | 32 | 70.6 | – | – | – | – | –
2 | Nc1cccc(CC2CNCC2NC2CCN(Cc3ccccc3)C2)n1 (stereo not drawn) [Compound P-39] | 92.8 | 638 | 4.10 | 14.38 | 22.6 | 196 | 325 | 716 | – | – | – | – | –
3 | Cc1cc(N)nc(C[C@H]2CNC[C@H]2N(C)CCNCCc2cccc(F)c2)c1.Cl.Cl.Cl.Cl (racemic) [Compound P-75] | – | – | – | – | – | – | – | – | 92.4 | 283.5 | 117.3 | 0.326 | 38.2
4 | Cc1cc(N)nc(C[C@H]2CNC[C@H]2NC[C@H](C)NCc2ccc(Cl)cc2)c1.Cl.Cl.Cl.Cl (racemic) [Compound P-63] | – | – | – | – | – | – | – | – | 40 | 294.4 | 90 | 0.136 | 12.2
5 | Cc1cc(N)nc(C[C@H]2CNC[C@@H]2OCCN)c1.Cl.Cl.Cl (racemic) [Compound P-81] | – | – | – | – | – | – | – | – | 1.5 | 0.3 | 1.7 | 5 | 8.5
6 | Nc1cccc(CC2CNCC2NC2CCN(Cc3ccccc3)C2)n1 (stereo not drawn) [Compound P-37] | 182 | 1250 | 2.42 | 3.05 | 75.2 | 654 | 229 | 506 | – | – | – | – | –
7 | Cc1cccc(CNCCN[C@@H]2CNC[C@@H]2Cc2cc(C)cc(N)n2)c1.Cl.Cl.Cl.Cl (racemic) [Compound P-53] | – | – | – | – | – | – | – | – | 71.6 | 450.5 | 56.7 | 0.159 | 9.01
8 | Cc1cc(N)nc(CC2CNCC2NCCNCc2cccc(C(F)(F)F)c2)c1.Cl.Cl.Cl.Cl (racemic) [Compound P-58] | – | – | – | – | – | – | – | – | 109 | 146.1 | 79 | 0.74 | 58.7
9 | Cc1cc(N)nc(CC2CNCC2N(C)CCN(C)CCc2cccc(F)c2)c1.Cl.Cl.Cl.Cl (racemic) [Compound P-74] | – | – | – | – | – | – | – | – | 48.9 | 40.27 | 46.7 | 1.21 | 56.6
10 | CN(C)CCNC1CNCC1Cc1cccc(N)n1 (racemic) [Compound P-15] | 242 | 1660 | 15.41 | 19.65 | 15.7 | 136 | 308 | 679 | – | – | – | – | –
11 | Cl.Cl.Cl.Nc1cccc(CC2CNCC2NCCCc2ccccc2)n1 (racemic) [Compound P-12] | 85.2 | 586 | 6.42 | 10.83 | 13.3 | 115 | 144 | 317 | – | – | – | – | –
12 | Nc1cccc(CC2CNCC2NC2CCNC2)n1 (racemic) [Compound P-35] | 424 | 2920 | 311.85 | 146.75 | 1.36 | 11.8 | 200 | 440 | – | – | – | – | –
13 | Nc1cccc(C[C@H]2CNC[C@H]2NCCNCc2ccccc2)n1 (racemic) [Compound P-33] | > 10200 | > 70000 | >8619.5 | 136.36 | 1.18 | 10.2 | 161 | 355 | – | – | – | – | –
14 | Nc1cccc(CC2CNCC2NC2CCN(Cc3ccccc3)C2)n1 (stereo not drawn) [Compound P-36] | 108 | 740 | 32.20 | 66.39 | 3.34 | 29 | 222 | 489 | – | – | – | – | –
15 | Cc1cc(N)nc(C[C@H]2CNC[C@H]2NC(=O)CNCCc2cccc(F)c2)c1.Cl.Cl.Cl (racemic) [Compound P-77, (±)-N-{cis-4-[(6-amino-4-methylpyridin-2-yl)methyl]pyrrolidin-3-yl}-2-(3-fluorophenethylamino)acetamide trihydrochloride] | – | – | – | – | – | – | – | – | 26 | 500 | 26.4 | 0.053 | 1.4
